The test concerns yeast. The test can be described thus: Natural spoilage of chicken salad, growth of yeast. It counts as cell-based. As to conditions: 500 ppm Nisin. Here is the method: The chicken salad was freshly made and allowed to spoil naturally over time. To prevent the product from being spoiled by Lactic Acid Bacteria (LAB), which can cause an accumulation of lactic acid reducing the pH over time, Nisin preparation (500 ppm) was added. Treatments included a no preservative Control, 500 ppm Nisin, 0.1% Potassium sorbate +500 ppm Nisin (Ps+N), and 1% Bacillus fermentate +500 ppm Nisin (BA+N). Usage rates were in the range of typical inclusion in finished foods.

For nisin, the “yeast counts compared to Bacillus-treated samples” value was “rose much higher”.

The values above are taken from patent US20250064093A1, “FERMENTED PH-INDEPENDENT SOLUTION SPOILAGE CONTROL IN FOOD SYSTEMS” (Third Wave Bioactives, LLC, priority 2023, published 2025).
